Laboratory results reported in patent US10953027B2, “Active agents and methods of their use for the treatment of metabolic disorders and nonalcoholic fatty liver disease” (Flagship Pioneering Innovations V, Inc., priority 2018, dated 2021).

How the values were obtained:
[1] = Assay 1. Stability in Simulated Gastric Fluid (SGF); format: in vitro ADME; conditions: 1 μM, 37° C., SGF pH 1.6 with pepsin
Experimental: Assay 1. Stability of acylated active agents in Simulated Gastric Fluid (SGF). This assay was used to assess the stability of an acylated active agent in a stomach.
Medium was prepared by dissolving 2 g of sodium chloride in 0.6 L of ultrapure water (MilliQ®, Millipore Sigma, Darmstadt, Germany). The pH was adjusted to 1.6 with 1N hydrochloric acid, and the volume was then adjusted to 1 L with purified water.
60 mg FaSSIF powder (Biorelevant™, London, UK) were dissolved in 500 mL buffer (above). Pepsin was added (0.1 mg/mL) (Millipore Sigma, Darmstadt, Germany), and the solution was stirred. The resulting SGF media were used fresh for each experiment.
Test compounds were dissolved in DMSO stock to 1 mM. An aliquot of the DMSO stock solution was removed and diluted in the SGF Media in 15 mL falcon tubes to generate a compound concentration of 1 μM. A 1 mL aliquot was immediately removed and diluted once with 1 volume of acetonitrile for T0 timepoint. The mixture was sealed and mixed at 37° C. in an incubator. Aliquots (1 mL) were removed at regular intervals and immediately quenched by the addition of 1 volume of acetonitrile. The resulting samples were analyzed by LC/MS to determine degradation rates in SGF.

[2] = Assay 2. Stability in Simulated Intestinal Fluid (SIF); format: in vitro ADME; conditions: 1 μM, 37° C., SIF pH 6.7 with pancreatin
Experimental: Assay 2. Stability of acylated active agents in Simulated Intestinal Fluid (SIF). This assay was used to assess the stability of an acylated active agent in a small intestine.
Phosphate buffer was prepared by dissolving 0.42 g of sodium hydroxide pellets and 3.95 g of monobasic sodium phosphate monohydrate and 6.19 g of sodium chloride in ultrapure water (MilliQ®, Millipore Sigma, Darmstadt, Germany). The pH was adjusted to 6.7 using aq. HCl and aq. NaOH, as necessary, and the solution was diluted with ultrapure water to produce 1 L of the pH 6.7 buffer.
112 mg FaSSIF powder (Biorelevant™, London, UK) was dissolved in 50 mL of the pH 6.7 buffer. 2 to 3 mL of the resulting solution were then added to 500 mg pancreatin (Millipore Sigma, Darmstadt, Germany). The resulting mixture was agitated by finger tapping the vessel containing the mixture until milky suspension formed. At this time, the remainder of the 50 mL FaSSiF/pH 6.7 buffer solution was added. The resulting suspension was flipped upside down 10 times to produce SIF, which was used fresh.
Test compounds were dissolved in DMSO stock to 1 mM. An aliquot of the DMSO stock solution was removed and diluted in the SIF media in 15 mL falcon tubes to produce a mixture with a tested compound concentration of 1 μM. A 1 mL aliquot was immediately removed and diluted once with 1 volume of acetonitrile for T0 timepoint. The mixture was sealed and agitated at 37° C. in an incubator. Aliquots (1 mL) were removed at regular intervals and immediately quenched by the addition of 1 volume of acetonitrile. The resulting samples were analyzed by LC/MS to determine degradation rates.

| SMILES | Assay 1 (SGF) (% Remaining @ 1 hours) [1] | Assay 2 (SIF) (% @ Remaining 4 hours) [2] |
| --- | --- | --- |
| C=C1CC[C@H](OC(=O)C2OCC[C@@H](C)O2)C/C1=C/C=C1\CCC[C@]2(C)[C@@H]([C@H](C)CCCC(C)C)CC[C@@H]12 (stereo partly drawn) [Compound 69, [(1 S,3Z)-3-[(2E)-2-[(1R,3aS,7aR)-1-[(1R)-1,5-dimethylhexyl]-7a-methyl-2,3,3a,5,6,7-hexahydro-1H-inden-4-ylidene]ethylidene]-4-methylene-cyclohexyl] (4R)-4-methyl-1,3-dioxane-2-carboxylate] | C (C: >75% of the tested compound remaining) | C (C: >75% of the tested compound remaining) |
| C=C1CC[C@H](OC(=O)C2(C)OCC[C@@H](C)O2)C/C1=C/C=C1\CCC[C@]2(C)[C@@H]([C@H](C)CCCC(C)C)CC[C@@H]12 (stereo partly drawn) [Compound 70, [(1 S,3Z)-3-[(2E)-2-[(1R,3aS,7aR)-1-[(1R)-1,5-dimethylhexyl]-7a-methyl-2,3,3a,5,6,7-hexahydro-1H-inden-4-ylidene]ethylidene]-4-methylene-cyclohexyl] (4R)-2,4-dimethyl-1,3-dioxane-2-carboxylate] | B (B: 25-75% of the tested compound remaining) | C (C: >75% of the tested compound remaining) |
| CCCC(=O)O[C@H]1[C@@H](OC(=O)CCC)COC(O)[C@@H]1OC(=O)CCC (stereo partly drawn) [Compound 72, (3R,4S,5S)-2-hydroxytetrahydro-2H-pyran-3,4,5-triyl Tributyrate] | C (C: >75% of the tested compound remaining) | A (A: <25% of the tested compound remaining) |
| CCCC(=O)O[C@H](C)CCOC(=O)Oc1ccc(/C=C/c2cc(OC(=O)OCC[C@@H](C)OC(=O)CCC)cc(OC(=O)OCC[C@@H](C)OC(=O)CCC)c2)cc1 [Compound 75, (2R,2′R)-((((5-((E)-4-((((R)-3-(butyryloxy)butoxy)carbonyl)oxy)styryl)-1,3-phenylene)bis(oxy))bis(carbonyl))bis(oxy))bis(butane-4,2-diyl) dibutyrate] | C (C: >75% of the tested compound remaining) | B (B: 25-75% of the tested compound remaining) |
| CCC(=O)OCC[C@@H](C)OC(=O)Oc1ccc(/C=C/c2cc(OC(=O)O[C@H](C)CCOC(=O)CC)cc(OC(=O)O[C@H](C)CCOC(=O)CC)c2)cc1 [Compound 76, (3R,3′R)-((((5-((E)-4-(((((R)-4-(propionyloxy)butan-2-yl)oxy)carbonyl)oxy)styryl)-1,3-phenylene)bis(oxy))bis(carbonyl))bis(oxy))bis(butane-3,1-diyl) dipropionate] | B (B: 25-75% of the tested compound remaining) | A (A: <25% of the tested compound remaining) |
| CCC(=O)O[C@H](C)CCOC(=O)Oc1ccc(/C=C/c2cc(OC(=O)OCC[C@@H](C)OC(=O)CC)cc(OC(=O)OCC[C@@H](C)OC(=O)CC)c2)cc1 [Compound 77, (2R,2′R)-((((5-((E)-4-((((R)-3-(propionyloxy)butoxy)carbonyl)oxy)styryl)-1,3-phenylene)bis(oxy))bis(carbonyl))bis(oxy))bis(butane-4,2-diyl) dipropionate] | B (B: 25-75% of the tested compound remaining) | A (A: <25% of the tested compound remaining) |
| C[C@@H]1O[C@H](OC(=O)CCc2c[nH]c3ccccc23)[C@@H](OC(=O)CCc2c[nH]c3ccccc23)[C@H](OC(=O)CCc2c[nH]c3ccccc23)[C@@H]1OC(=O)CCc1c[nH]c2ccccc12 [Compound 103, (2R,3S,4R,5R,6S)-3,4,5-tris({[3-(1H-indol-3-yl)propanoyl]oxy})-6-methyloxan-2-yl 3-(1H-indol-3-yl)propanoate] | B (B: 25-75% of the tested compound remaining) | A (A: <25% of the tested compound remaining) |
| CCCC(=O)O[C@@H]1[C@@H](OC(=O)CCC)[C@@H](OC(=O)CCc2c[nH]c3ccccc23)OC[C@@H]1OC(=O)CCC [Compound 114, (2R,3R,4S,5S)-4,5-bis(butanoyloxy)-2-{[3-(1H-indol-3-yl)propanoyl]oxy}oxan-3-yl Butanoate] | B (B: 25-75% of the tested compound remaining) | A (A: <25% of the tested compound remaining) |
| CCC(=O)OC[C@H]1OC(O)[C@H](OC(=O)CC)[C@@H](OC(=O)CC)[C@@H]1OC(=O)CC (stereo partly drawn) [Compound 142, [(2R,3R,4S,5R)-6-hydroxy-3,4,5-tris(propanoyloxy)oxan-2-yl]methyl Propanoate] | C (C: >75% of the tested compound remaining) | A (A: <25% of the tested compound remaining) |
| CCC(=O)O[C@H]1[C@H](OC(=O)CC)[C@H](OC(=O)Cc2c[nH]c3ccccc23)O[C@@H](C)[C@H]1OC(=O)CC [Compound 150, (2S,3S,4R,5R,6S)-2-{[2-(1H-indol-3-yl)acetyl]oxy}-6-methyl-4,5-bis(propanoyloxy)oxan-3-yl Propanoate] | C (C: >75% of the tested compound remaining) | A (A: <25% of the tested compound remaining) |
| CCC(=O)O[C@@H]1[C@H](OC(=O)CC)[C@H](C)OC(O)[C@H]1OC(=O)CC (stereo partly drawn) [Compound 156, (3S,4R,5R,6S)-2-hydroxy-6-methyl-4,5-bis(propanoyloxy)oxan-3-yl Propanoate] | C (C: >75% of the tested compound remaining) | A (A: <25% of the tested compound remaining) |
| CCC(=O)OC1O[C@@H](C)[C@@H](OC(=O)CC)[C@@H](OC(=O)CC)[C@@H]1OC(=O)CC (stereo partly drawn) [Compound 157, (3S,4R,5R,6S)-6-methyl-3,4,5-tris(propanoyloxy)oxan-2-yl Propanoate] | C (C: >75% of the tested compound remaining) | A (A: <25% of the tested compound remaining) |
| CCC(=O)O[C@@H]1[C@@H](OC(=O)CC)[C@@H](OC(=O)CC)CO[C@H]1O [Compound 159, (3S,4S,5R,6R)-6-hydroxy-4,5-bis(propanoyloxy)oxan-3-yl Propanoate] | C (C: >75% of the tested compound remaining) | B (B: 25-75% of the tested compound remaining) |
| CCC(=O)O[C@@H]1[C@@H](OC(=O)CC)[C@H](OC(=O)CC)CO[C@H]1O [Compound 161, (2R,3R,4S,5R)-2-hydroxy-4,5-bis(propanoyloxy)oxan-3-yl Propanoate] | C (C: >75% of the tested compound remaining) | A (A: <25% of the tested compound remaining) |
| CCC(=O)OC1OC[C@@H](OC(=O)CC)[C@H](OC(=O)CC)[C@H]1OC(=O)CC (stereo partly drawn) [Compound 162, (3R,4S,5R)-3,4,5-tris(propanoyloxy)oxan-2-yl Propanoate] | C (C: >75% of the tested compound remaining) | A (A: <25% of the tested compound remaining) |
| O=C(CCc1c[nH]c2ccccc12)O[C@@H]1[C@H](OC(=O)CCc2c[nH]c3ccccc23)COC(O)[C@@H]1OC(=O)CCc1c[nH]c2ccccc12 (stereo partly drawn) [Compound 167, (3R,4R,5R)-6-hydroxy-4,5-bis({[3-(1H-indol-3-yl)propanoyl]oxy})oxan-3-yl 3-(1H-indol-3-yl)propanoate] | C (C: >75% of the tested compound remaining) | A (A: <25% of the tested compound remaining) |
| O=C(CCc1c[nH]c2ccccc12)O[C@H]1OC[C@@H](OC(=O)CCc2c[nH]c3ccccc23)[C@@H](OC(=O)CCc2c[nH]c3ccccc23)[C@H]1OC(=O)CCc1c[nH]c2ccccc12 [Compound 182, (2R,3R,4R,5R)-3,4,5-tris({[3-(1H-indol-3-yl)propanoyl]oxy})oxan-2-yl 3-(1H-indol-3-yl)propanoate] | C (C: >75% of the tested compound remaining) | A (A: <25% of the tested compound remaining) |
| CCCC(=O)Oc1cc(OC(=O)CCC)c2c(=O)c(OC(=O)CCC)c(-c3cc(OC(=O)CCC)c(OC(=O)CCC)c(OC(=O)CCC)c3)oc2c1 [Compound 200, 3,5-bis(butanoyloxy)-4-oxo-2-[3,4,5-tris(butanoyloxy)phenyl]-4H-chromen-7-yl Butanoate] | C (C: >75% of the tested compound remaining) | C (C: >75% of the tested compound remaining) |
